Data from patent US5783597A, “2,5-disubstituted thiophenes: inhibitors of 5-lipoxygenase and inducible cyclooxygenase (COX-2) enzymes, composition and use” (Ortho Pharmaceutical Corporation, priority 1997, dated 1998).

Columns and labels:
5-lipoxygenase (5-LO) [1] = biological target: T1, 5-lipoxygenase (5-LO) (Rattus norvegicus, UniProt P12527); test: RBL-1 cell 5-lipoxygenase and cyclooxygenase - Whole cells (Procedure II); type: cell-based
T1 construct: endogenous in cells; host or cells: intact RBL-1 (rat basophilic leukemia) cells, stimulated with calcium ionophore A23187
T1 sequence (P12527 1-673): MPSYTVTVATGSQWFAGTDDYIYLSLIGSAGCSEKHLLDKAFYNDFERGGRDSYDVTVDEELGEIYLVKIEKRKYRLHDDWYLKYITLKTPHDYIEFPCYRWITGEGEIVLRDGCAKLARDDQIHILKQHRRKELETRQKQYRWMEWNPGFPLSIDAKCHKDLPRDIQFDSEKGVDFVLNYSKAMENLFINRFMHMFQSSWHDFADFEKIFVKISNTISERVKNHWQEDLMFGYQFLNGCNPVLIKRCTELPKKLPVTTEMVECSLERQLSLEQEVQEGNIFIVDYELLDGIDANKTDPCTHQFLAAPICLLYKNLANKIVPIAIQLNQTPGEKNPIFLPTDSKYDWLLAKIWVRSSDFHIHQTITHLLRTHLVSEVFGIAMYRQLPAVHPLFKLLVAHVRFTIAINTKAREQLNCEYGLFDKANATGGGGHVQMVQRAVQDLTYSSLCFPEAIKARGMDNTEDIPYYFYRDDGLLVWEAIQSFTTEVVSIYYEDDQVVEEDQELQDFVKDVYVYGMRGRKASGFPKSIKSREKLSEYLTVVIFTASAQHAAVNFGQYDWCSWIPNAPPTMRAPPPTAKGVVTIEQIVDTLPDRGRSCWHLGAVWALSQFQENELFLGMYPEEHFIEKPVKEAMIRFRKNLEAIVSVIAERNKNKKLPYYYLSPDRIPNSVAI
Procedure: RBL-1 Cell 5-Lipoxygenase and cyclooxygenase - Whole cells
The ability to inhibit 5-LO and CO in intact RBL-1 cells was also evaluated. […] Cells were collected by centrifugation, washed once in HBSS, and resuspended at a concentration of 1×10^5 cells/mL. Cells were incubated in the presence of vehicle or drug then centrifuged at 800×g for 10 minutes at 4° C. The supernatant was removed by aspiration and the cells were resuspended in 0.5 mL of HBSS. […] The conversion of M to 5-LO products was initiated by the addition of 10 μL (50 uCi) of 1-^14 C-AA. Products were isolated by acidification and extraction, followed by thin layer chromatography analysis as described above. Radioactive areas corresponding to authentic 5-LO (5-HETE) and CO (PGD2) products were quantitated by the Bioscan 2000 Imaging System.

[2] = biological target: T2, Human Prostaglandin H2 Synthase Typ II (Cox-2) (Homo sapiens, UniProt P35354); test: Human Prostaglandin H2 Synthase Typ II (Cox-2) Whole Cell Assay, ECV-304 cells (Procedure III); type: cell-based; details: ECV-304 whole cells; for IC50: PGE2 produced, read-out: Procedure III (COX-2) Wh Cell IC50; for inhibition at 10 µM: read-out: Procedure III (COX-2) Wh Cell, percent inhibition of PGE2 produced
T2 construct: endogenous in cells; host or cells: ECV-304 cells treated with PMA and ionomycin for 16 hours
T2 sequence (P35354 18-604): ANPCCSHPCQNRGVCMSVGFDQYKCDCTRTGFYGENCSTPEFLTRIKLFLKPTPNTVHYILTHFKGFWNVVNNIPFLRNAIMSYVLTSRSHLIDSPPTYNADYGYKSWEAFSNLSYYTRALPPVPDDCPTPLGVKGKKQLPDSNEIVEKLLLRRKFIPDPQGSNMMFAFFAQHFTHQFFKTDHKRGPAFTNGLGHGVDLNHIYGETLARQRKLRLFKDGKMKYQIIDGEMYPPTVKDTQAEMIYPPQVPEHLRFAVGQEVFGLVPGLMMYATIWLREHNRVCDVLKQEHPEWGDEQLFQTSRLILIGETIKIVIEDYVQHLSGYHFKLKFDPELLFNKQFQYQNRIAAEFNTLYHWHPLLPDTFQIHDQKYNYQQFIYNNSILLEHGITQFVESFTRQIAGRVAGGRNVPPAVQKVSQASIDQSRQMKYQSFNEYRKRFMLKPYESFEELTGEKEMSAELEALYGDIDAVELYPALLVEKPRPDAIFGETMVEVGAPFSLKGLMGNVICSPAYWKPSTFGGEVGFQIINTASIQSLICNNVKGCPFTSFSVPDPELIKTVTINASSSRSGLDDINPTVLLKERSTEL
Procedure: Human Prostaglandin H2 Synthase Typ II (Cox-2) Whole Cell Assay (Multiple Concentrations)
ECV-304 (human, endothelial, umbilical cord) cells are maintained in culture in a suitable medium, and are trypsinized and plated at a density of 1×10^6 cells per well of a 6 well plate prior to assay. Approximately 28 hours later, 50 μg/ml PMA and […] ionomycin (both final concentrations) are added to each well and incubated for an additional 16 hours. Vehicle or test compounds are incubated with the cells for five minutes prior to initiation of Cox-2 enzyme activity by the addition of 30 μM arachidonic acid. Ten minutes later, an aliquot of the supernatant is withdrawn and the amount of PGE2 present quantitated by radioimmunoassay. Activity, reported as percent inhibition of PGE2 produced, is calculated as follows: […]

5-lipoxygenase (5-LO) [3] = biological target: T1, 5-lipoxygenase (5-LO); test: RBL-1 cell 5-lipoxygenase and cyclooxygenase - Homogenate (Procedure I); type: biochemical
Procedure: RBL-1 cell 5-lipoxygenase and cyclooxugenase - Homogenate
Rat basophilic leukemia cells (RBL-1; 5×10^7 viable cells/mL) were disrupted by homogenization on ice (four 20 sec bursts) with a Brinkman polytron. […] The homogenate was then centrifuged at 9,220×g for 48 minutes at 4° C. The pellet was discarded and the supernatant was saved as the source of enzymes. The supernatant was pre-incubated for five minutes at 37° C. in the presence of 2 mM of CaCl2 and compound or vehicle (1% DMSO). The conversion of AA into products by CO and LO was initiated by adding 10 μL (50 μCi) of 1-^14 C-AA to each tube and incubated at 37° C. for 20 minutes. The reaction was stopped by adjusting the pH of each sample to 3 to 3.5 with 2M formic acid. Samples were extracted with three volumes of chloroform to isolate the products of 5-LO formed during the reaction. Fractions were dried under nitrogen, then resuspended in 40 μL of chloroform and spotted onto silica gel HL plates. The plates were developed in A-9 solvent. The dried plates were analyzed using a Bioscan Imaging TLC scanner to determine the percentage of radiolabelled M converted to 5-HETE (LO product) and PGD2 (CO product) in each sample.

[4] = intact RBL-1 cells, 5-HETE, read-out: Procedure II (5-LO) Wh Cell IC50
[5] = RBL-1 homogenate supernatant, 5-HETE, read-out: Procedure I (5-LO) Homog. IC50

IC50 (5-lipoxygenase (5-LO) [1]; [4]) [nM] | IC50 [2] [nM] | IC50 (5-lipoxygenase (5-LO) [3]; [5]) [nM] | inhibition at 10 µM [2] [%] | Structure (SMILES) | IC50 (5-lipoxygenase (5-LO) [1]) [nM] | IC50 (5-lipoxygenase (5-LO) [3]) [nM]
660 |  | 60 | 54 | Cc1cccc(Oc2ccc(NS(C)(=O)=O)s2)c1C [Example 9] |  | 
890 | 5300 | 30 |  | CS(=O)(=O)Nc1ccc(Oc2ccc(F)c(Cl)c2)s1 [Example 6] |  | 
730 | 1970 | 150 |  | CS(=O)(=O)Nc1ccc(Oc2ccc(F)cc2F)s1 [Example 14] |  | 
1400 | 5290 | 60 |  | CS(=O)(=O)Nc1ccc(Oc2ccc(F)cc2Br)s1 [Example 17] |  | 
1090 | 1900 | 90 |  | Cc1cc(F)ccc1Oc1ccc(NS(C)(=O)=O)s1 [Example 16] |  | 
490 |  | 160 | 13 | CS(=O)(=O)Nc1ccc(Oc2cccc(F)c2)s1 [Example 3] |  | 
660 |  | 100 | 39 | CSc1ccc(Oc2ccc(NS(C)(=O)=O)s2)cc1 [Example 4] |  | 
4700 |  | 610 | 36 | CC(C)c1cccc(Oc2ccc(NS(C)(=O)=O)s2)c1 [Example 20] |  | 
 | 10000 |  |  | CS(=O)(=O)Nc1ccc(Oc2cccc3c2CCCC3)s1 [Example 23] |  | 
650 | 5800 | 90 |  | CS(=O)(=O)Nc1ccc(Oc2ccc(Cl)cc2Cl)s1 [Example 13] |  | 
310 | 1180 | 20 |  | Cc1cc(Oc2ccc(NS(C)(=O)=O)s2)ccc1F [Example 11] |  | 
310 | 1690 | 120 |  | Cc1cccc(Oc2ccc(NS(C)(=O)=O)s2)c1 [Example 15] |  | 
800 | 3000 | 70 |  | CS(=O)(=O)Nc1ccc(Oc2cccc3ccccc23)s1 [Example 21] |  | 
1450 |  | 20 | 0 | COc1ccc(Oc2ccc(NS(C)(=O)=O)s2)cc1 [Example 7] |  | 
500 | 10300 | 60 |  | CS(=O)(=O)Nc1ccc(Oc2cccc(Cl)c2)s1 [Example 8] |  | 
470 | 4220 | 70 |  | CS(=O)(=O)Nc1ccc(Oc2ccccc2)s1 [Example 2] |  | 
660 | 18000 | 75 |  | CS(=O)(=O)Nc1ccc(Oc2ccc(Cl)cc2)s1 [Example 12] |  | 

Second part, the compound before the results:

Structure (SMILES) | IC50 (5-lipoxygenase (5-LO) [1]; [4]) [nM] | IC50 [2] [nM] | IC50 (5-lipoxygenase (5-LO) [3]; [5]) [nM] | inhibition at 10 µM [2] [%] | IC50 (5-lipoxygenase (5-LO) [1]) [nM] | IC50 (5-lipoxygenase (5-LO) [3]) [nM]
CS(=O)(=O)Nc1ccc(Oc2cccc(C(F)(F)F)c2)s1 [Example 10] | 780 | 1020 | 60 |  |  | 
CS(=O)(=O)Nc1ccc(Cc2ccccc2)s1 [Example 31, N-(5-Benzylthien-2-yl)methanesulfonamide] | 380 |  | 110 | 45 |  | 
CS(=O)(=O)Nc1ccc(SC2CCCCC2)s1 [Example 29] | 2390 | 9100 | 70 |  |  | 
CCCCCCCCS(=O)(=O)Nc1ccc(Oc2ccccc2)s1 [Example 26] | 2900 |  | 300 | 8 |  | 
CS(=O)(=O)Nc1ccc(-c2ccc(F)cc2)s1 [Example 32, N-5-[(4-fluoro)phenyl-thien-2-yl]methanesulfonamide] | 2100 |  | 150 | 3 |  | 
O=S(=O)(Nc1ccc(Oc2ccccc2)s1)c1ccccc1 [Example 27] | 900 |  | 100 | 44 |  | 
CC(C)S(=O)(=O)Nc1ccc(Oc2ccccc2)s1 [Example 25] | 1040 |  | 50 | 16 |  | 
CS(=O)(=O)Nc1ccc(Oc2cc(C(F)(F)F)cc(C(F)(F)F)c2)s1 [Example 18] | 6500 |  | 310 | 8 |  | 
CS(=O)(=O)Nc1ccc(-c2ccccc2)s1 [Example 33, N-5-[phenyl-thien-2-yl]methanesulfonamide] | 790 |  | 110 | 31 |  | 
CS(=O)(=O)Nc1ccc(Oc2ccc3ccccc3c2)s1 [Example 22] | 770 | 10000 | 60 |  |  | 
CCCCCSc1ccc(NS(C)(=O)=O)s1 [Example 30] | 630 | 2760 | 40 |  |  | 
CS(=O)(=O)Nc1ccc(Oc2cc(C(F)(F)F)ccc2Cl)s1 [Example 19] |  |  |  | 29 | 1800 | 140
CS(=O)(=O)Nc1ccc(Sc2ccccc2)s1 [Example 28] | 700 |  | 190 | 33 |  | 
CS(=O)(=O)Nc1ccc(Oc2ccc(S(C)(=O)=O)cc2)s1 [Example 5] | 38500 |  | 1800 | 0 |  | 
CCCCS(=O)(=O)Nc1ccc(Oc2ccccc2)s1 [Example 24] | 1120 | 10000 | 360 |  |  | 
